Test results as given in paper PMC10531055, “Molecular Mechanism of Mutational Disruption of DCLK1 Autoinhibition Provides a Rationale for Inhibitor Screening” (International Journal of Molecular Sciences, 2023).

Molecular target: T1, DCLK1 (Doublecortin-like kinase 1) (Homo sapiens, UniProt O15075)
T1 construct: kinase domain (KD)
T1 sequence (O15075 390-647 limits assumed): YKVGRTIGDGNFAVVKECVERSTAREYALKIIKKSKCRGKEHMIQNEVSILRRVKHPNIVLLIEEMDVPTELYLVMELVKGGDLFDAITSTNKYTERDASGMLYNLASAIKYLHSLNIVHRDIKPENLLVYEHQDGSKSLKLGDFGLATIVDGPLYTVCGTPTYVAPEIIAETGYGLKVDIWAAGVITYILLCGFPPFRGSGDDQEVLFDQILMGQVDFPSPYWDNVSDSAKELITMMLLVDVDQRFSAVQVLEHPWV
Test: SPR (Biacore X-100, kinase domain immobilized on CM5 chip)
Assay type: binding

CCN1CCN(Cc2ccc(Nc3ncc(F)c(-c4cc(F)c5nc(C)n(C(C)C)c5c4)n3)nc2)CC1 [6ZV, Abemaciclib]
Kd: 1.92 µM
